These results are taken from PMC7126875 (Bioorganic & Medicinal Chemistry Letters, 2007).

As a reminder, the CC50 is the concentration at which the toxic effect on the cells reaches its halfway point.

The test system of data set [1] is SARS-CoV Frankfurt-1 strain. In kind it is cell-based.
For data set [2], the system named is SARS-CoV Frankfurt-1 strain. In kind it is cell-based. The source holds these as a separate data set.
Data set [3] deals with SARS-CoV Frankfurt-1 strain. Particulars: cited from earlier work.
The subject of a further data set is Vero E6 cells. Particulars: cited from earlier work.
The subject of data set [4] is SARS-CoV Frankfurt-1 strain. Particulars: cited from earlier work. This is another data set of the same source.

On to `OC[C@H]1O[C@@H](n2cnc3c(Cl)ncnc32)[C@H](O)[C@@H]1O` [Compound 1], for which, in data set [1], the “concentration required to reduce the virus yield to one-hundredth of the control” value is recorded as “approximately 20 μM”.
With `OC[C@H]1O[C@@H](n2cnc3c(Cl)ncnc32)C[C@@H]1O` [Compound 6], the “anti-SARS-CoV activity (in words)” value in data set [2] is given as “weak antiviral activity”.
On to `OC[C@@H]1C[C@@H](O)[C@H](n2cnc3c(Cl)ncnc32)O1` [Compound 7], for which the “anti-SARS-CoV activity (in words)” value in data set [2] is recorded as “weak antiviral activity”.
On the same count and under the same terms, the same measure for `OCC1CC(n2cnc3c(Cl)ncnc32)C1CO` (stereo not shown) [Compound 10]: “almost no activity”.
Consider `NC(=O)c1ncn([C@@H]2O[C@H](CO)[C@@H](O)[C@H]2O)c1O` [Mizoribine], for which, in data set [3], the “concentration required to decrease the virus yield to one-tenth of the control” value is listed as “approximately 35 μM”. Besides, in the data set on Vero E6 cells, the CC50 is > 700 µM. Further, the “Antiviral index (50% toxic dose divided by 50% inhibitory dose)” value in data set [4] is >52.
Take `NC(=O)c1ncn([C@@H]2O[C@H](CO)[C@@H](O)[C@H]2O)n1` [Ribavirin]: the “concentration required to decrease the virus yield to one-tenth of the control” value in data set [3] was ~200 µM. Also, in the data set with Vero E6 cells, the cytotoxic concentration (CC50) is > 850 µM. In addition, the “Antiviral index (50% toxic dose divided by 50% inhibitory dose)” value in data set [4] is >10.
